# Experimental data from patent publication US10336762B2 (priority 2017, dated 2019).
# Read-outs that look alike come from different tables or passages of the source.
# What was measured:
# IRAK4 enzyme = IRAK4 enzyme (Homo sapiens (Human), UniProt Q9NWZ3); assay: biochemical; type: biochemical; conditions: IRAK4 enzyme, 500 μM ATP
# TNFα = assay: cells; type: cell-based, human; conditions: LPS-stimulated human monocytes, read-out: EC50 TNF
# [1] = Homo sapiens, Monocyte, TNFα by TR-FRET
# [2] = Homo sapiens, Monocyte, TNFα content
# IRAK4 enzyme, sequence (Q9NWZ3 whole entry): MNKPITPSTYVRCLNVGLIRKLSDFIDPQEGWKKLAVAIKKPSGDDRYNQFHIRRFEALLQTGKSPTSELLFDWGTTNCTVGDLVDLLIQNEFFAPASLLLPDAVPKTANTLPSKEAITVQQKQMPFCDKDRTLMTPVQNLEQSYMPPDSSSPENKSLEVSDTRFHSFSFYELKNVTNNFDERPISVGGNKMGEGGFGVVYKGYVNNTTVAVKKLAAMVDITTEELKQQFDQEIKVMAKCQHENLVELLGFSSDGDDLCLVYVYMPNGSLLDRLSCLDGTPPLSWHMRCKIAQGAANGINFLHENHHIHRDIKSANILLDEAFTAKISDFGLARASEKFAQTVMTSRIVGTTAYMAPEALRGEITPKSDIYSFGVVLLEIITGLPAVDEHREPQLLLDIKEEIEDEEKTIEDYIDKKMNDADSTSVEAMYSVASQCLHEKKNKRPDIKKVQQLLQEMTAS
Structure (SMILES),IC50 (IRAK4 enzyme; TR-FRET) [nM],IC50 (IRAK4 enzyme; TR-FRET (HTRF)) [nM],EC50 (TNFα; [2]) [nM],also measured
"N#Cc1cnn2c(-c3cc(NC45CCC(O)(CC4)CC5)c(C(=O)NCCN4CCCC4=O)cn3)ccc2c1 [Example 809, 6-(3-cyanopyrrolo[1,2-b]pyridazin-7-yl)-4-((4-hydroxybicyclo[2.2.2]octan-1-yl)amino)-N-(2-(2-oxopyrrolidin-1-yl)ethyl)nicotinamide]",1,,,EC50 (TNFα; [1]): 166 nM
"CC(C)(O)[C@H](F)CNC(=O)c1cnc(-c2ccc3cc(C#N)cnn23)cc1Nc1ccc(O)nc1 [Example 435, (R)-6-(3-cyanopyrrolo[1,2-b]pyridazin-7-yl)-N-(2-fluoro-3-hydroxy-3-methylbutyl)-4-((6-hydroxypyridin-3-yl)amino)nicotinamide]",,10000,> 10000,
"CC(C)(O)[C@H](F)CNC(=O)c1cnc(-c2ccc3cc(C#N)cnn23)cc1N[C@H]1C[C@H](CNC(=O)C2CC2F)C1 (stereo partly drawn) [Example 941, 6-(3-cyanopyrrolo[1,2-b]pyridazin-7-yl)-N-((R)-2-fluoro-3-hydroxy-3-methylbutyl)-4-(((1R,3R)-3-(((1R,2R)-2-fluorocyclo-propane-1-carboxamido)methyl)cyclobutyl)amino) nicotinamide]",< 1,,,EC50 (TNFα; [1]): 19 nM
"COC(=O)N1CCC12CC(Nc1cc(-c3ccc4cc(C#N)cnn34)ncc1C(=O)NC[C@@H](F)C(C)(C)O)C2 (stereo partly drawn) [Example 909, (4S,6r)-methyl 6-((2-(3-cyanopyrrolo[1,2-b]pyridazin-7-yl)-5-(((R)-2-fluoro-3-hydroxy-3-methylbutyl)carbamoyl)pyridin-4-yl)amino)-1-azaspiro[3.3]heptane-1-carboxylate]",15,,,EC50 (TNFα; TNFα by TR-FRET): 372 nM
"CC(C)(O)[C@H](F)CNC(=O)c1cnc(-c2ccc3cc(C#N)cnn23)cc1Nc1ccc(-c2nnco2)cc1 [Example 627, (R)-4-((4-(1,3,4-oxadiazol-2-yl)phenyl)amino)-6-(3-cyanopyrrolo[1,2-b]pyridazin-7-yl)-N-(2-fluoro-3-hydroxy-3-methylbutyl)nicotinamide]",,< 1,30,
"CC(C)(O)[C@H](F)CNC(=O)c1cnc(-c2ccc3cc(C#N)cnn23)cc1N[C@@H]1CCCN(S(C)(=O)=O)C1 [Example 254, 6-(3-cyanopyrrolo[1,2-b]pyridazin-7-yl)-N-((R)-2-fluoro-3-hydroxy-3-methylbutyl)-4-(((R)-1-(methylsulfonyl)piperidin-3-yl)amino)nicotinamide]",17,,2020,
"Cn1cnc2cc(Nc3cc(-c4ccc5cc(C#N)cnn45)ncc3C(=O)NC[C@@H](F)C(C)(C)O)cnc21 [Example 782, (R)-6-(3-cyanopyrrolo[1,2-b]pyridazin-7-yl)-N-(2-fluoro-3-hydroxy-3-methylbutyl)-4-((3-methyl-3H-imidazo[4,5-b]pyridin-6-yl)amino)nicotinamide]",,< 1,29,
"COCc1nnc(NC[C@H]2C[C@H](Nc3cc(-c4ccc5cc(C#N)cnn45)ncc3C(=O)NC[C@@H](F)C(C)(C)O)C2)o1 [Example 697, 6-(3-cyanopyrrolo[1,2-b]pyridazin-7-yl)-N-((R)-2-fluoro-3-hydroxy-3-methylbutyl)-4-(((1r,3R)-3-(((5-(methoxymethyl)-1,3,4-oxadiazol-2-yl)amino)methyl)cyclobutyl)amino) nicotinamide]",,1,171,
"CC(C)(O)[C@H](F)CNC(=O)c1cnc(-c2ccc3cc(C#N)cnn23)cc1NC1CCC(C)(N2CCOCC2)CC1 (single isomer, unassigned) [Example 690]",,1,,EC50 (TNFα; TNFα content): 71 nM
"CC(C)(O)[C@H](F)CNC(=O)c1cnc(-c2ccc3cc(C#N)cnn23)cc1NCCCS(C)(=O)=O [Example 103, (R)-6-(3-cyanopyrrolo[1,2-b]pyridazin-7-yl)-N-(2-fluoro-3-hydroxy-3-methylbutyl)-4-((3-(methylsulfonyl)propyl)amino)nicotinamide]",< 1,,75,
"COC(=O)NCCCNc1cc(-c2ccc3cc(C#N)cnn23)ncc1C(=O)NC[C@@H](F)C(C)(C)O [Example 716, (R)-methyl (3-((2-(3-cyanopyrrolo[1,2-b]pyridazin-7-yl)-5-((2-fluoro-3-hydroxy-3-methylbutyl)carbamoyl)pyridin-4-yl)amino)propyl)carbamate]",,< 1,55,
"CC(C)(O)[C@H](F)CNC(=O)c1cnc(-c2ccc3cc(C#N)cnn23)cc1NC1CC2CCC(C1)N2S(C)(=O)=O (stereo partly drawn) [Example 29, 6-(3-cyanopyrrolo[1,2-b]pyridazin-7-yl)-N-((R)-2-fluoro-3-hydroxy-3-methylbutyl)-4-(((1R,3s,5S)-8-(methylsulfonyl)-8-azabicyclo[3.2.1]octan-3-yl)amino)nicotinamide]",< 1,,,EC50 (TNFα; TNFα content): 100 nM
"CC(C)Nc1cc(-c2ccc3cc(C(N)=O)cnn23)ncc1C(=O)NC1CS(=O)(=O)C1 [Example 78, 7-(5-((1,1-dioxidothietan-3-yl)carbamoyl)-4-(isopropyl-amino)pyridin-2-yl)pyrrolo[1,2-b] pyridazine-3-carboxamide]",27,,1620,
"COC(=O)NCC12CC(Nc3cc(-c4ccc5cc(C#N)cnn45)ncc3C(=O)NC[C@@H](F)C(C)(C)O)(C1)C2 [Example 547, (R)-methyl ((3-((2-(3-cyanopyrrolo[1,2-b]pyridazin-7-yl)-5-((2-fluoro-3-hydroxy-3-methylbutyl)carbamoyl)pyridin-4-yl)amino)bicyclo[1.1.1]pentan-1-yl)methyl)carbamate]",,< 1,28,
CNC(=O)OC[C@H]1C[C@H](Nc2cc(-c3ccc4cc(C#N)cnn34)ncc2C(=O)NC[C@@H](F)C(C)(C)O)C1 [Example 725],,< 1,23,
"CC(C)(O)[C@H](F)CNC(=O)c1cnc(-c2ccc3cc(C#N)cnn23)cc1Nc1ccc(-c2cc[nH]n2)cc1 [Example 177, (R)-4-((4-(1H-pyrazol-3-yl)phenyl)amino)-6-(3-cyanopyrrolo[1,2-b]pyridazin-7-yl)-N-(2-fluoro-3-hydroxy-3-methylbutyl)nicotinamide]",< 1,,29,
"CC(C)(O)[C@H](F)CNC(=O)c1cnc(-c2ccc3cc(C#N)cnn23)cc1Nc1ccc(Cl)nc1 [Example 965, (R)-4-((6-chloropyridin-3-yl)amino)-6-(3-cyanopyrrolo[1,2-b]pyridazin-7-yl)-N-(2-fluoro-3-hydroxy-3-methylbutyl)nicotinamide]",< 1,,,EC50 (TNFα; [1]): 26 nM
"CC(=O)N1CCC[C@@H](Nc2cc(-c3ccc4cc(C#N)cnn34)ncc2C(=O)NC[C@@H](F)C(C)(C)O)C1 [Example 253, 4-(((R)-1-acetylpiperidin-3-yl)amino)-6-(3-cyano-pyrrolo[1,2-b]pyridazin-7-yl)-N-((R)-2-fluoro-3-hydroxy-3-methylbutyl)nicotinamide]",3,,510,
"CC(C)(O)[C@H](F)CNC(=O)c1cnc(-c2ccc3cc(C#N)cnn23)cc1Nc1ccc(-n2cccn2)nc1 [Example 770, (R)-4-((6-(1H-pyrazol-1-yl)pyridin-3-yl)amino)-6-(3-cyanopyrrolo[1,2-b]pyridazin-7-yl)-N-(2-fluoro-3-hydroxy-3-methyl-butyl)nicotinamide]",,< 1,50,
